From patent US20250346629A1, “USE OF D-ENANTIOMERIC PEPTIDE LIGANDS OF MONOMERIC ALPHA-SYNUCLEIN FOR THE THERAPY OF VARIOUS SYNUCLEINOPATHIES” (PRIAVOID GMBH, priority 2021, published 2025)
Where two headings read alike, the source gives them in different places. Square brackets hold non-standard residues; d marks the D form. Peptide text beside a SMILES is read from it.

What was measured:
[1] = test system: αSynA53T-YFP cells (HEK293T); test: Cell assay for seeded α-synuclein aggregation (FIG. 19); assay type: cell-based, human
Procedure: A construct encoding full-length A53T-mutated human α-syn and fused with YFP at the C-terminus was synthesized and introduced into the pMK-RQ expression vector (GeneArt; Thermo Fisher Scientific, USA). The α-synA53T-YFP construct was sub-cloned using the restriction sites NheI (5′) and NotI (3′) in the vector pIRESpuro3 (Clontech; Takara Bio, JPN). HEK293T cells (American Type Culture Collection) were cultured in high-glucose Dulbecco's Modified Eagle's Medium (DMEM; Sigma-Aldrich, USA) which had 10% fetal calf serum (Sigma-Aldrich, USA), 50 units/ml penicillin, and also 50 μg/ml streptomycin (Sigma-Aldrich, USA) added thereto. The cells were cultured at 37° C. in a humidified atmosphere with 5% CO2.
The cells plated in DMEM were transfected with Lipofectamine 2000 (Invitrogen; Thermo Fisher Scientific, USA). Stable cells were selected in DMEM with 1 μg/ml puromycin (EMD Millipore, USA). Monoclonal cell lines were produced by means of fluorescence-activated cell sorting of a polyclonal cell population in 96-well plates using a MoFlo XDP cell sorter (Beckman Coulter, USA). […]
The plates were then incubated at 37° C. in a humidified atmosphere with 5% CO2. On the third day, the cells were imaged in an IN Cell Analyzer 6500HS system (Cytiva, USA) using the blue and green fluorescence channels, and analyzed by the IN Carta Image Analysis software (Cytiva, USA) which had been used to establish an algorithm for identifying intracellular aggregates in living cells. Four wells were used for each condition and 16 images were recorded per well and analyzed by a fully-automated algorithm in order to prevent distortions. […]
In order to validate the inhibitory effect of SVD-1a in cells, use was made of the α-synA53T-YFP cell system which stably expresses human α-syn with the familial A53T mutation, fused with YFP, in HEK293T cells, and the fluorescence-based detection of aggregates makes it possible to clearly show the strongly fluorescent spots within the cells against the background, intracellularly after seeding with PFF oligomers. […] Panels C, F and I show αSynA53T-YFP fluorescence. […]

WT α-syn = WT α-syn (Homo sapiens, UniProt P37840); test: Single cycle SPR experiment of WT α-syn on CM5-immobilized peptides (FIG. 8); conditions: 1:1 binding model fit, CM5 chip, PBS pH 7.4, 0.005% Tween-20
Procedure: Each peptide was immobilized on a CM5 sensor chip surface. WT α-syn was injected in a concentration range of 30-500 nM in PBS, PH 7.4, 0.005% (v/v) Tween-20. Regeneration was carried out after every cycle with 2 M Gua-HCl for 2×30 sec. The KDs were determined with a 1:1 binding model fit, as follows: SVD-1a: 15.7 nM; SVD-6a: 14.0 nM; SVD-10a: 12.3 nM.

WT alpha-synuclein = WT alpha-synuclein (Homo sapiens, UniProt P37840); test: Multicycle SPR experiment of WT alpha-synuclein and immobilized SVD-1 (FIG. 3); assay type: binding
Procedure: WT α-syn was injected in a concentration range of […] in PBS, PH 7.4. Regeneration: 2 M Gua-HCl and 0.1% SDS.

α-syn [2] = target: α-syn (Homo sapiens, UniProt P37840, A140C); test: MST measurement of SVD-1 and α-syn (FIG. 2, α-syn 140C-C2-Alexa 647); assay type: binding
From the text: 70% LED power; 60% MST power.

α-syn oligomers = α-syn oligomers (Homo sapiens, UniProt P37840); test: α-syn oligomer elimination, HPLC-SEC of supernatant (FIG. 4); assay type: biochemical; conditions: SVD-1 150 and 250 μM; 5 μM monomer-equivalent oligomers, 3 days, 900 rpm, 37° C.
From the text: The samples were centrifuged at 21 000×g and the supernatant was loaded onto an HPLC-SEC column.

PC12 cells = assay type: cell-based; conditions: rat, 24 h, 15 μM
Procedure: PC12 cells (Leibniz-Institut DSMZ, GE) were cultured at 37° C. on a collagen A-coated (Biochrom GmbH, GE) tissue culture flask in RPMI 1640 medium, supplemented with 5% fetal calf serum and 10% horse serum in an atmosphere humidified to 95% with 5% CO2. 10 000 cells per well in a volume of 100 μl were seeded into collagen A-coated 96-well plates (Thermo Fisher Scientific, USA and incubated for 24 hours at 37° C. and 300 rpm in a thermocycler.
Furthermore, 15 μM of the peptides alone, cell media, buffer without peptide and 0.1% Triton X-100 (cytotoxic compound) were used as controls. After further incubation in a 95% humidified atmosphere with 5% CO2 at 37° C. for 24 hours, the viability of the cells was measured using the Cell Proliferation Kit I (MTT) (Roche Applied Science, CH), following the manufacturer's protocol.
The MTT-formazan product was quantified by measuring the absorbance at 570 nm, corrected by subtracting the absorbance at 660 nm, in a FluoroStar Optima plate reader (BMG labtech, GE). All results were normalized to untreated cells grown only in medium. The significance test was carried out by one-way ANOVA with Bonferroni post-hoc analysis (OriginPro 2020, OriginLab, USA; n=4).
The significance test was carried out by one-way ANOVA with Bonferroni post-hoc analysis: […], ***p≤0.01. The means are stated±SD (n=4).

full-length α-syn = full-length α-syn (Homo sapiens, UniProt P37840); test: MST measurement of fluorophore-labeled peptides with full-length α-syn (FIG. 10); assay type: binding; conditions: 100 nM labeled peptide, PBS pH 7.4, 25° C., individual measurement
Procedure: The peptides were fluorescence labeled by means of cysteine-maleimide coupling. SVD-1_Cys and SVD 1a_Cys were fluorescence labeled at the C-terminus with a fivefold or tenfold molar excess of TCEP and CF633-PEG2-maleimide (Sigma-Aldrich, USA). The labeling reaction was carried out in 25 mM NaPi, PH 7.0, for 2 h at RT. The labeled peptides were purified at 25° C. using an Agilent 1260 Infinity II System and a C-18 RP-HPLC column (Zorbax 300 SB-C8/SB-C 18, Agilent, USA). The mobile phases consisted of A: water+0.1% TFA, and B: acetonitrile+0.1% TFA. The fluorescence-labeled peptides and proteins were eluted with a gradient of 5-40% (v/v) B in 30 min. The fluorescence-labeled products were fractionated using the absorption wavelength of the fluorophore (CF633: 633 nm) and the pooled samples were subsequently lyophilized and redissolved in the appropriate buffer. The protein concentrations were determined by means of UV-vis and the fluorescence-labeled samples were stored at −20° C.
The experiments for microscale thermophoresis (MST) were carried out using a Monolith NT.115 device (NanoTemper Technologies GmbH, GE). Fluorescence-labeled peptides were diluted in PBS, PH 7.4 to a final concentration of 100 nM. […] The data was evaluated with the thermophoresis effect, using the NT analysis software (version 1.5.41) supplied by the manufacturer. […]

[3] = Solubility of D-peptides in buffer (UV-vis of supernatant after centrifugation); assay type: physicochemical; conditions: different buffers including PBS, aqueous buffer; different buffer conditions including PBS pH 7.4; 1 h at 37° C., 20 800×g centrifugation; read-out: starting concentration up to which the compound remained completely in the supernatant
From the text: D-enantiomeric peptides with C-terminal amidation were acquired from CASLO (CASLO, DK) as a lyophilized chloride salt powder having a purity of >95%.

α-syn [4] = target: α-syn (Homo sapiens, UniProt P37840); test: Gradient centrifugation of α-syn aggregation samples (FIG. 6); assay type: biochemical; conditions: equimolar SVD-1, 9 days, 37° C., no shaking, Iodixanol gradient
Procedure: No shaking, no glass beads, at 37° C. After 9 days, the triplet samples were combined together and 100 μl was added to an Iodixanol gradient (5-50% (w/v)). 15 fractions, each of 140 μl were analyzed by means of RP-HPLC using a Zorbax 300 SB-C8 column and integrated to α-syn peaks.

## kgvgnleyqlwalegk-NH2
[1]; 25 μM peptide, seeded with soluble α-syn-PFF oligomers, third day
  cells with aggregation: 85%
[1]; seeded with 30 nM PFF oligomers, day 3, two-stage transfection
  inhibition of α-syn aggregation in cells: not

## C[C@H](O)[C@@H](NC(=O)[C@@H](CC(N)=O)NC(=O)[C@@H](Cc1c[nH]c2ccccc12)NC(=O)[C@@H](Cc1ccc(O)cc1)NC(=O)[C@H]1CCCN1C(=O)[C@H]1CCCN1C(=O)[C@@H](CC(N)=O)NC(=O)[C@@H](Cc1c[nH]c2ccccc12)NC(=O)[C@@H](CCC(N)=O)NC(=O)[C@@H](CCC(N)=O)NC(=O)[C@@H](Cc1c[nH]c2ccccc12)NC(=O)[C@@H](Cc1c[nH]cn1)NC(=O)[C@@H](CO)NC(=O)[C@H](N)CO)C(=O)N[C@H](CC(=O)O)C(=O)N[C@H](CO)C(=O)N[C@H](CCCNC(=N)N)C(=O)N[C@H](CCCNC(=N)N)C(=O)N[C@H](CCCNC(=N)N)C(=O)N[C@H](CCCNC(=N)N)C(=O)N[C@H](CCCNC(=N)N)C(N)=O [SVD-10a, sshwqqwnppywntdsrrrrr] (H-[dS][dS][dH][dW][dQ][dQ][dW][dN][dP][dP][dY][dW][dN][dT][dD][dS][dR][dR][dR][dR][dR]-NH2)
WT α-syn
  Kd: 12.3 nM

## CC[C@@H](C)[C@@H](NC(=O)[C@@H](Cc1c[nH]cn1)NC(=O)[C@@H](CCC(=O)O)NC(=O)[C@@H](CCC(N)=O)NC(=O)[C@@H](Cc1c[nH]c2ccccc12)NC(=O)[C@@H](Cc1ccc(O)cc1)NC(=O)[C@H](NC(=O)[C@@H](CCC(=O)O)NC(=O)[C@@H](Cc1c[nH]cn1)NC(=O)[C@H](NC(=O)[C@H]1CCCN1C(=O)[C@@H](CCSC)NC(=O)[C@H](N)CCCCN)[C@H](C)O)[C@H](C)O)C(=O)N[C@H](Cc1c[nH]c2ccccc12)C(=O)N[C@H](Cc1c[nH]cn1)C(=O)N[C@H](C)C(N)=O [SVD-1, kmpthetywqehiwha] (H-[dK][dM][dP][dT][dH][dE][dT][dY][dW][dQ][dE][dH][dI][dW][dH][dA]-NH2)
WT alpha-synuclein; heterogeneous ligand adjustment, PBS pH 7.4, read-out: KD1
  Kd: 12.5 nM
WT alpha-synuclein; read-out: KD2, heterogeneous ligand adjustment, PBS pH 7.4
  Kd: 2000 nM
α-syn [2]
  Kd: 55 nM
α-syn oligomers
  α-syn oligomer in the supernatant: not possible to detect any α-syn oligomer in the supernatant
PC12 cells
  cells saved (cell viability): 89%
full-length α-syn
  Kd: 170 nM
[3]
  solubility at 1 h: ≥ 1000 µM
α-syn [4]
  fibril formation (fractions F6-F12): No fibril formation (F6-F12) was observed

## CC(C)C[C@@H](NC(=O)[C@H]1CCCN1C(=O)[C@@H](CCC(N)=O)NC(=O)[C@@H](CCCNC(=N)N)NC(=O)[C@@H](Cc1c[nH]c2ccccc12)NC(=O)[C@@H](CC(=O)O)NC(=O)[C@H](N)Cc1ccc(O)cc1)C(=O)N[C@H](CO)C(=O)N[C@H](C)C(=O)N[C@H](CO)C(=O)N[C@H](CCCNC(=N)N)C(=O)N[C@H](Cc1ccccc1)C(=O)N[C@H](CC(C)C)C(=O)N[C@H](C)C(=O)N1CCC[C@@H]1C(=O)N[C@H](Cc1c[nH]c2ccccc12)C(=O)N[C@H](CCCNC(=N)N)C(=O)N[C@H](CCCNC(=N)N)C(=O)N[C@H](CCCNC(=N)N)C(=O)N[C@H](CCCNC(=N)N)C(=O)N[C@H](CCCNC(=N)N)C(N)=O [SVD-6a, ydwrqplsasrflapwrrrrr] (H-[dY][dD][dW][dR][dQ][dP][dL][dS][dA][dS][dR][dF][dL][dA][dP][dW][dR][dR][dR][dR][dR]-NH2)
WT α-syn
  Kd: 14 nM
